According to US9296681B2, “Cycloalkylmethylamines” (Reviva Pharmaceuticals, Inc., priority 2006, dated 2016):

Columns and labels:
[1] = biological target: human recombinant dopamine transporter (DAT) (Homo sapiens (Human), UniProt Q01959); experiment: radioligand binding assay, dopamine transporter; conditions: 11 test concentrations, duplicates
Protocol: (§1) The monoamine transporters inhibitory activities of selected compounds cycloalkylmethylamine derivatives comprising Formula (I) are reported herein. The compounds were evaluated using well established radioligand binding assays protocols (Galli, A. et al., J. Exp. Biol. 1995, 198, 2197-2212; Giros, B. et al., Trends Pharmcol. Sci. 1993, 14, 43-49; Gu, H. et al., J. Biol. Chem. 1994, 269(10), 7124-7130; Shearman, L. P. et al, Am. J. Physiol., 1998, 275 (6 Pt 1), C1621-1629; Wolf, W. A. et al., J. Biol. Chem. 1992, 267(29), 20820-20825). The human recombinant transporter proteins dopamine (DAT), norepinephrine (NET) and serotonin (SERT) were selected for the in vitro assays. The radioligand binding assays were carried out at 11 different test concentrations […] to 1 μM.
(§2) The assays were carried out in duplicates and the quantitative data are reported as Ki in the TABLE 1.

[2] = biological target: human recombinant norepinephrine transporter (NET) (Homo sapiens (Human), UniProt P23975); experiment: radioligand binding assay, norepinephrine transporter; conditions: 11 test concentrations, duplicates
Protocol: as §1, §2

[3] = biological target: human recombinant serotonin transporter (SERT) (Homo sapiens (Human), UniProt P31645); experiment: radioligand binding assay, serotonin transporter; conditions: 11 test concentrations, duplicates
Protocol: as §1, §2

[4] = active metabolites of sibutramine; cited from earlier work

Sequence of human recombinant norepinephrine transporter (NET) (P23975 whole entry): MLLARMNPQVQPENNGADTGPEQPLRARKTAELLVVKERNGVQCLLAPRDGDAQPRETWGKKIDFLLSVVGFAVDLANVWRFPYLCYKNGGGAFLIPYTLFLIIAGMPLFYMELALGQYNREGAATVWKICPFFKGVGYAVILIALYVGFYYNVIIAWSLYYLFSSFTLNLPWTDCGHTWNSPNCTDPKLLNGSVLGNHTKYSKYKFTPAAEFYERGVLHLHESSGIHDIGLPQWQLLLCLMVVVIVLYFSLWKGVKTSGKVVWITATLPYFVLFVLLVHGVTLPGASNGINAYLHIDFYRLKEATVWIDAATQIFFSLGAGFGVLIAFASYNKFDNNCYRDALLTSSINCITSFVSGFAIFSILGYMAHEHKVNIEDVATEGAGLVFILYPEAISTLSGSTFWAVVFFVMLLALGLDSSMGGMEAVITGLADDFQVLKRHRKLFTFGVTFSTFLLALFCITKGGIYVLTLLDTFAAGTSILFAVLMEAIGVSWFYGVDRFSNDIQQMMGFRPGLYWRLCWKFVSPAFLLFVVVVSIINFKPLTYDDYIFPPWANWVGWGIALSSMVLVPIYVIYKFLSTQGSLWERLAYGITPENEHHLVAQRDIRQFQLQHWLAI
Sequence of human recombinant dopamine transporter (DAT) (Q01959 whole entry): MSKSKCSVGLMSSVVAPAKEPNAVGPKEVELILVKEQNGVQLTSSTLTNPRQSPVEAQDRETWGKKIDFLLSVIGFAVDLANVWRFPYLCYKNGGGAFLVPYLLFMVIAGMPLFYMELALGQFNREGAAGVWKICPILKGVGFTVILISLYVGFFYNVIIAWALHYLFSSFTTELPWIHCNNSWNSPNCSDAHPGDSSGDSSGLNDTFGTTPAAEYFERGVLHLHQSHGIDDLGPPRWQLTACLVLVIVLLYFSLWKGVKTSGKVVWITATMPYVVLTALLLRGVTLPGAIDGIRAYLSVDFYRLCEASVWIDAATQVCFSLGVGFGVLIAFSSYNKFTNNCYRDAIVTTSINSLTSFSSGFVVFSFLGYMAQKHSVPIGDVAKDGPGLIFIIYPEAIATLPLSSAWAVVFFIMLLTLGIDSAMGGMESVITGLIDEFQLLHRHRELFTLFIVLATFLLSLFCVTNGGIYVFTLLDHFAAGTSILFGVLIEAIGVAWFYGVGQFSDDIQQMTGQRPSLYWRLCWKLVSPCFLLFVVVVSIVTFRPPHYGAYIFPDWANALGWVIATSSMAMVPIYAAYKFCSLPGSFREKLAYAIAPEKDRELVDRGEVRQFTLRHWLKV

Structure (SMILES) | Ki [1] | Ki [2] | Ki [3] | elimination half-life [4]
CC(C)CC(NCCCC(N)=O)C1(c2ccc(Cl)c(Cl)c2)CCC1 (racemic) [Compound 33a-Racemic] | 1.5 nM | 50.1 nM | 8.1 nM | –
CCOc1ccc(C2(C(CC(C)C)NCCCC(N)=O)CCC2)cc1 (racemic) [Compound 33b-Racemic] | 472 nM | > 10000 nM | 5.49 nM | –
CC(C)C[C@@H](NCCCC(N)=O)C1(c2ccc(Cl)c(Cl)c2)CCC1 (single isomer, unassigned; isomer-1) [33a-(R)-Isomer] | 0.91 nM | 30.3 nM | 2.3 nM | –
CC(C)C[C@H](NCCCC(N)=O)C1(c2ccc(Cl)c(Cl)c2)CCC1 (single isomer, unassigned; isomer-2) [33a-(S)-Isomer] | 126 nM | 3420 nM | 300 nM | –
CNC(CC(C)C)C1(c2ccc(Cl)cc2)CCC1 (centres unmarked) [Compound M1] | – | – | – | 14 h
CC(C)CC(N)C1(c2ccc(Cl)cc2)CCC1 (centres unmarked) [Compound M2] | – | – | – | 16 h
